What all share (type): functional
Assay [1] relates to Staphylococcus epidermidis. Briefly: Antibacterial activity against Staphylococcus epidermidis ATCC 12228 after 20 to 22 hr by agar dilution method.
Another assay deals with Staphylococcus aureus. The assay is described as follows: Antibacterial activity against Staphylococcus aureus ATCC 25923 after 20 to 22 hr by agar dilution method.
A further assay relates to Micrococcus. Briefly: Antibacterial activity against Micrococcus […] ATCC 9341 after 20 to 22 hr by agar dilution method.
The subject of a further assay is Bacillus cereus. Briefly: Antibacterial activity against Bacillus cereus ATCC 11778 after 20 to 22 hr by agar dilution method.
The test system of the next assay is Proteus vulgaris. Briefly: Antibacterial activity against Proteus vulgaris ATCC 13315 after 20 to 22 hr by agar dilution method.
The test system of another assay is Bacillus subtilis. Briefly: Antibacterial activity against Bacillus subtilis ATCC 6633 after 20 to 22 hr by agar dilution method.
Assay [2] deals with Bordetella bronchiseptica. The assay is described as follows: Antibacterial activity against Bordetella bronchiseptica ATCC 4617 after 20 to 22 hr by agar dilution method.

Our source for the MIC values is ChEMBL document CHEMBL3045110, “Synthesis and antibacterial evaluation of 6-azapyrimidines with -methylene--(4-substituted phenyl)--butyrolactone pharmacophores” (2011).

Converted amounts (≈) assume the structure as drawn.

Turning to `C=C1CC(Cn2ncc(=O)[nH]c2=O)(c2ccccc2)OC1=O` (stereo unspecified), the MIC is over 100 µg/mL in assay [1]; over 100 µg/mL against Staphylococcus aureus; over 100 µg/mL with Micrococcus; over 100 µg/mL against Bacillus cereus; 5 µg/mL (≈ 16.7 µM) with Proteus vulgaris; over 100 µg/mL in the assay on Bacillus subtilis. In assay [2], the MIC was over 100 µg/mL.

For `C=C1CC(Cn2ncc(=O)[nH]c2=O)(c2ccc(F)cc2)OC1=O` (stereo unspecified), the MIC is over 100 µg/mL in assay [1]; over 100 µg/mL with Staphylococcus aureus; over 100 µg/mL against Micrococcus; 50 µg/mL (≈ 158 µM) with Bacillus cereus; 50 µg/mL (≈ 158 µM) with Proteus vulgaris; over 100 µg/mL in the assay on Bacillus subtilis. In addition, in assay [2], the minimum inhibitory concentration (MIC) is over 100 µg/mL.

`C=C1CC(Cn2ncc(=O)[nH]c2=O)(c2ccc(-c3ccccc3)cc2)OC1=O` (stereo unspecified): the MIC was over 100 µg/mL in assay [1]; over 100 µg/mL against Staphylococcus aureus; over 100 µg/mL against Micrococcus; 50 µg/mL (≈ 133 µM) in the assay with Bacillus cereus; 25 µg/mL (≈ 66.6 µM) in the assay on Proteus vulgaris; over 100 µg/mL in the assay with Bacillus subtilis. The minimal inhibitory concentration (MIC) in assay [2] was over 100 µg/mL.

Turning to `C=C1CC(Cn2nc(C)c(=O)[nH]c2=O)(c2ccccc2)OC1=O` (stereo unspecified), the minimum inhibitory concentration (MIC) (in assay [1]; in the assay on Staphylococcus aureus; against Micrococcus; against Bacillus cereus; in the assay on Proteus vulgaris; in the assay with Bacillus subtilis) was over 100 µg/mL each time. For the same compound, the minimum inhibitory concentration (MIC) in assay [2] is over 100 µg/mL.

Regarding `C=C1CC(Cn2nc(C)c(=O)[nH]c2=O)(c2ccc(F)cc2)OC1=O` (stereo unspecified), the minimum inhibitory concentration (MIC) in assay [1] is over 100 µg/mL; in the assay on Staphylococcus aureus, over 100 µg/mL; against Micrococcus, over 100 µg/mL; against Bacillus cereus, 50 µg/mL (≈ 151 µM); against Proteus vulgaris it was over 100 µg/mL; in the assay with Bacillus subtilis, over 100 µg/mL. The MIC in assay [2] is over 100 µg/mL.

Regarding `C=C1CC(Cn2nc(C)c(=O)[nH]c2=O)(c2ccc(-c3ccccc3)cc2)OC1=O` (stereo unspecified), the minimum inhibitory concentration (MIC) is 25 µg/mL (≈ 64.2 µM) in assay [1]; over 100 µg/mL against Staphylococcus aureus; over 100 µg/mL against Micrococcus; over 100 µg/mL in the assay with Bacillus cereus; over 100 µg/mL against Proteus vulgaris; 25 µg/mL (≈ 64.2 µM) in the assay on Bacillus subtilis. In assay [2], this compound showed a minimum inhibitory concentration (MIC) of 50 µg/mL (≈ 128 µM).

In the case of `C=C1CC(Cn2ncc(=O)n(CC3(c4ccccc4)CC(=C)C(=O)O3)c2=O)(c2ccccc2)OC1=O` (stereo unspecified), the minimal inhibitory concentration (MIC) (in assay [1]; in the assay on Staphylococcus aureus; in the assay with Micrococcus; with Bacillus cereus; against Proteus vulgaris; in the assay with Bacillus subtilis) was over 100 µg/mL throughout. This compound also gave an MIC in assay [2] of over 100 µg/mL.

In the case of `C=C1CC(Cn2ncc(=O)n(CC3(c4ccc(F)cc4)CC(=C)C(=O)O3)c2=O)(c2ccc(F)cc2)OC1=O` (stereo unspecified), the minimum inhibitory concentration (MIC) in assay [1] is over 100 µg/mL; with Staphylococcus aureus, over 100 µg/mL; in the assay with Micrococcus it was over 100 µg/mL; with Bacillus cereus it was 10 µg/mL (≈ 19.2 µM); with Proteus vulgaris, over 100 µg/mL; in the assay with Bacillus subtilis, over 100 µg/mL. In assay [2], this compound displayed an MIC of over 100 µg/mL.

Turning to `C=C1CC(Cn2ncc(=O)n(CC3(c4ccc(-c5ccccc5)cc4)CC(=C)C(=O)O3)c2=O)(c2ccc(-c3ccccc3)cc2)OC1=O` (stereo unspecified), the minimum inhibitory concentration (MIC) in assay [1] turned out to be 10 µg/mL (≈ 15.7 µM); in the assay with Staphylococcus aureus it was 50 µg/mL (≈ 78.4 µM); with Micrococcus, 50 µg/mL (≈ 78.4 µM); in the assay with Bacillus cereus, 25 µg/mL (≈ 39.2 µM); in the assay on Proteus vulgaris, 25 µg/mL (≈ 39.2 µM); with Bacillus subtilis, 10 µg/mL (≈ 15.7 µM). Further, the MIC in assay [2] is 25 µg/mL (≈ 39.2 µM).

On to `C=C1CC(Cn2nc(C)c(=O)n(CC3(c4ccccc4)CC(=C)C(=O)O3)c2=O)(c2ccccc2)OC1=O` (stereo unspecified), for which the minimal inhibitory concentration (MIC) (in assay [1]; in the assay on Staphylococcus aureus; with Micrococcus; against Bacillus cereus; against Proteus vulgaris; with Bacillus subtilis) was over 100 µg/mL each time. In assay [2], the MIC is over 100 µg/mL.

Consider `C=C1CC(Cn2nc(C)c(=O)n(CC3(c4ccc(F)cc4)CC(=C)C(=O)O3)c2=O)(c2ccc(F)cc2)OC1=O` (stereo unspecified), for which the minimum inhibitory concentration (MIC) in assay [1] is over 100 µg/mL; against Staphylococcus aureus, over 100 µg/mL; in the assay on Micrococcus, 25 µg/mL (≈ 46.7 µM); with Bacillus cereus, 25 µg/mL (≈ 46.7 µM); in the assay on Proteus vulgaris, over 100 µg/mL; against Bacillus subtilis it was over 100 µg/mL. In assay [2], this compound gave an MIC of over 100 µg/mL.

As for `C=C1CC(Cn2nc(C)c(=O)n(CC3(c4ccc(-c5ccccc5)cc4)CC(=C)C(=O)O3)c2=O)(c2ccc(-c3ccccc3)cc2)OC1=O` (stereo unspecified), the MIC in assay [1] is over 100 µg/mL; with Staphylococcus aureus, over 100 µg/mL; against Micrococcus, over 100 µg/mL; with Bacillus cereus, 25 µg/mL (≈ 38.4 µM); against Proteus vulgaris it was over 100 µg/mL; against Bacillus subtilis, over 100 µg/mL. This compound gave an MIC in assay [2] of over 100 µg/mL.

Consider `O=c1cn[nH]c(=O)[nH]1` [6-AZAURACIL], for which the MIC (in assay [1]; in the assay on Staphylococcus aureus; with Micrococcus; in the assay with Bacillus cereus; against Proteus vulgaris; in the assay on Bacillus subtilis) was over 100 µg/mL each time. The same compound registered an MIC in assay [2] of over 100 µg/mL.
